Test results from patent US20050036993A1, “Immune activation by double-stranded polynucleotides” (priority 1998, published 2005).

Legend:
[1] = test system: MHC Class I, TAP-1, LMP2, MHC Class II, invariant chain, HLA-DM, 90K tumor-associated immunostimulator; experiment: Drug suppression of ds polynucleotide-induced MHC and antigen-presenting gene expression in FRTL-5 cells (Northern); assay type: cell-based, rat; conditions: for ability of dsDNA to increase MHC Class I, TAP-1, LMP2, MHC Class II, invariant chain, HLA-DM, and 90K gene expression / ability of dsRNA to increase MHC Class I, TAP-1, LMP2, MHC Class II, invariant chain, HLA-DM, and 90K gene expression: FRTL-5 cells with TSH (6H5) or without TSH (5H5), 48 hours pretreatment, compound 10 0.5 mM, MMI 5 mM; for ability of dsDNA to increase MHC Class I, TAP-1, LMP2, MHC Class II, invariant chain, HLA-DM, and 90K gene expression: 2-mercaptoimidazole 5 mM, 5 ug dsDNA; for dsDNA or dsRNA transfection efficiency: FRTL-5 cells, drug-treated; for ability of dsRNA to increase MHC Class I, TAP-1, LMP2, MHC Class II, invariant chain, HLA-DM, and 90K gene expression: 5 ug dsRNA
FRTL-5 rat thyroid cells = experiment: DNA staining and cell cycle analysis (FACS) of FRTL-5 cells; assay type: cell-based; conditions: for cell cycle arrest: 5H medium 6 days then 6H medium (TSH 1×10^−10M), 5 mM methimazole or 0.5 mM compound 10; for percentage of cells in S + G2/M phase: Methimazole 5 mM, Compound 10 0.5 mM; for action of the ds nucleic acids on cell cycle progression: Table 2 experiment, 4H medium; for effect of ds nucleic acids on growth: summary statement
Experimental: Cells were diploid and between their 5th and 25th passage. Fresh medium was added every 2 or 3 days and cells were passaged every 7-10 days. In some experiments, as noted, cells were grown to near confluency in 6H medium then maintained in 5H medium (which contains no TSH) or 4H medium (with no TSH and no insulin) for 6-8 days before experiments were initiated. Treatment with 5H or 4H medium synchronizes the cells by piling them up in G0/G1 (A. Hirai, et al., J. Biol. Chem. 272: 13-16 (1997); Y. Noguchi, et al., J. Biol. Chem. 273: 3649-3653 (1998)).
DNA Staining and Cell Cycle Analysis—The procedure used was a modification of that described (P. Smerdely, et al., Endocrinology 133: 2403-2406 (1993)). It used the Cycle TEST PLUS DNA Reagent Kit (Becton Dickinson, San Jose, Calif.); and FACS analysis was performed according to the manufacturer's instructions. Briefly, 5×10^5 cells were incubated with 250 T1 of Solution A (trypsin buffer) for 10 min at room temperature, then 200 T1 of Solution B (trypsin inhibitor and ribonuclease A buffer) was added and further incubated for 10 min. Cold Solution C (propidium iodide stain solution) was added and incubated for 10 min at 4° C. in the dark. FACS analysis was performed using FACScan (Becton Dickinson, San Jose, Calif.). Each analysis was performed in triplicate on cells from 3 different plates; the histogram had at least 10,000 events and a coefficient of variation less than 5%.
In the experiment above, there was a minimal direct methimazole effect on the cell cycle because the cells were maintained in 4H medium without insulin; methimazole action requires insulin (O. Isozaki, et al., Mol. Endocrinol, 3: 1681-1692 (1989); O. Isozaki, et al., Endocrinology 128: 3113-3121 (1991)). […] In this experiment, FRTL-5 cells were grown to near confluency in 6H medium, then shifted to 5H medium without TSH for 6 days. The experiments were initiated by returning the cells to 6H medium to reinitiate the cell cycle. Cells were treated with 5 mM methimazole and transfected or not with dsDNA or dsRNA. After 36 hours they were subjected to cell cycle analysis. […] In this experiment, FRTL-5 cells were grown to near confluency in 6H medium, then shifted to 5H medium without TSH for 6 days. The experiments were initiated by returning the cells to 6H medium to reinitiate the cell cycle. Cells were treated with 0.5 mM 5-phenylmethimazole (compound 10) and transfected or not with dsDNA or dsRNA. After 36 hours they were subjected to cell cycle analysis.

herpes simplex = conditions: cited from earlier work
vaccinia viruses = conditions: cited from earlier work
HUVEC cells = experiment: Drug suppression of ds DNA or RNA effect in endothelia (HUVEC) cells; assay type: cell-based, human
From the text: (§1) In this experiment (FIG. 6), cells were pretreated with MMI and compound 10 for 2 days before tranfection. […] The effect was therefore not thyroid cell restricted.

mouse dendritic cells = experiment: Drug suppression of ds DNA or RNA effect in mouse dendritic cells; assay type: cell-based
From the text: as §1

human fibroblasts = experiment: Drug suppression of ds DNA or RNA effect in human fibroblasts; assay type: cell-based
From the text: as §1

female NOD mice = conditions: cited from earlier work
female (NZBxNZW)F1 mice = conditions: cited from earlier work
[2] = test system: MHC Class I and Class II gene expression; conditions: cited from earlier work
[3] = Control (no ds nucleic acid), FRTL-5 cells 6 days in 4 H medium without insulin or TSH
[4] = transfected with dsDNA, FRTL-5 cells 6 days in 4 H medium
[5] = transfected with dsRNA, FRTL-5 cells 6 days in 4 H medium

| Compound | ability of dsDNA to increase MHC Class I, TAP-1, LMP2, MHC Class II, invariant chain, HLA-DM, and 90K gene expression [1] | dsDNA or dsRNA transfection efficiency [1] | cell cycle arrest (FRTL-5 rat thyroid cells; 36 hours) | percentage of cells in S + G2/M phase (FRTL-5 rat thyroid cells; [3]) | action of the ds nucleic acids on cell cycle progression (FRTL-5 rat thyroid cells) | effect of ds nucleic acids on growth (FRTL-5 rat thyroid cells) | percentage of cells in S + G2/M phase (FRTL-5 rat thyroid cells; [4]) | percentage of cells in S + G2/M phase (FRTL-5 rat thyroid cells; [5]) | activity as antimmune drug [2] | further results |
| --- | --- | --- | --- | --- | --- | --- | --- | --- | --- | --- |
| Cn1cc[nH]c1=S [Methimazole, methimazole, reference compound] | INHIBIT | does not affect | arrest in the G2/M1 phase | 6.3% | inhibit | counteracts | 11.4% | 7.4% |  |  |
| 1,3-dimethyl-4-phenylimidazoline-2-thione |  |  |  |  |  |  |  |  |  | antiviral properties (herpes simplex): antiviral properties; antiviral properties (vaccinia viruses): antiviral properties |
| Cn1c(-c2ccccc2)c[nH]c1=S [Compound 10, 5-phenylmethimazole] | significantly decreases | does not affect | no such effect | 10.5% | inhibit | does not | 11.0% | 4.5% | most active | ability of dsDNA to increase MHC Class I, TAP-1, LMP2, MHC Class II, invariant chain, HLA-DM, and 90K gene expression ([1]; listed as compound 10): better than 5 mM MMI; ability of dsRNA to increase MHC Class I, TAP-1, LMP2, MHC Class II, invariant chain, HLA-DM, and 90K gene expression [1]: decreases; ability of dsRNA to increase MHC Class I, TAP-1, LMP2, MHC Class II, invariant chain, HLA-DM, and 90K gene expression ([1]; listed as compound 10): better than MMI; expression of MHC and antigen-presenting genes, coincident transfection and treatment ([1]; no pretreatment): resulted in suppression; effect on cells transfected with double strand DNA or RNA (HUVEC cells): similarly effective; effect on cells transfected with double strand DNA or RNA (mouse dendritic cells): similarly effective; effect on cells transfected with double strand DNA or RNA (human fibroblasts): similarly effective; effect on ds nucleic acid effects on cell cycle (FRTL-5 rat thyroid cells; 5H then 6H medium, 0.5 mM compound 10, 36 hours): no effect; development of Diabetes (female NOD mice): suppress the development; development of systemic lupus erythematosus (SLE) (female (NZBxNZW)F1 mice): suppress the development; potency relative to MMI [2]: 10- to 100 fold |
| Sc1ncc[nH]1 [2-mercaptoimidazole, reference compound] | no effect |  |  |  |  |  |  |  | inactive |  |
